Reference: patent US20170056504A1, “METHOD OF EXTENDING HALF-LIFE OF CRYSTALINE ANTIBODIES” (priority 2015, published 2017)

Tests used:
[1] = Mouse model of high fat diet induced hyperlipidemia (another study); assay type: in vivo
PCSK9 = PCSK9 (Mus musculus, UniProt Q80W65); assay: LDL level in blood serum of mice that received xPCSK9 mAb and/or lactulose; assay type: in vivo, C57BL6 mice; design: endogenous in cells; host or cells: C57BL6 mice, in vivo (circulating PCSK9 of the animal); settings: oral lactulose alone without xPCSK9 mAb, Day 7
PCSK9, sequence (Q80W65 156-694): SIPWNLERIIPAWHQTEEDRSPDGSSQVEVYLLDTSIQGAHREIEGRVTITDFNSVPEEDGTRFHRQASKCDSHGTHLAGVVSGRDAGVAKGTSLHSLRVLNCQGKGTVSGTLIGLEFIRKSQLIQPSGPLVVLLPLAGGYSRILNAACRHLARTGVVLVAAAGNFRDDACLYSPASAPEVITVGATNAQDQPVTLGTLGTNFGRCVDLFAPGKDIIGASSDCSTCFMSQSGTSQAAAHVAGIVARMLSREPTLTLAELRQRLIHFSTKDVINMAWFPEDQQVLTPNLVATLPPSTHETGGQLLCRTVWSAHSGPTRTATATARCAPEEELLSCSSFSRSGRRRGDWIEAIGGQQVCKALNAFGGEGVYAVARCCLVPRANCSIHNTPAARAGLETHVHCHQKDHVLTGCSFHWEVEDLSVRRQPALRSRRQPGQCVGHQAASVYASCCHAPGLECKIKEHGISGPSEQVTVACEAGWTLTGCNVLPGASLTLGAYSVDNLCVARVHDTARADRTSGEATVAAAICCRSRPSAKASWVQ
Protocol: At Day 0, anti-PCSK9-mAb was systemically administrated (30 mg/kg in PBS, i.v.) to the FcRn gene knockout mice or their wild type C57BL/6 mice (8 w old male). Lactulose (30%, water solution) was orally administered using a Popper's feeding needle once in a day throughout the experiment. In some experiment, groups of mice received antibiotics cocktail (Ampicillin, 2 mg/ml; Vancomycin, 1 mg/ml, Metronidazole 2 mg/ml and Neomycin, 2 mg/ml) ad libitum for 7 days. Blood was collected from mice at Day 1 and Day 7 (100 ul/mouse) by retro-orbital bleeding. The serum was separated from the collected blood and saved at −70 C until the measurement of anti-PCSK9-mAb as well as low-density lipoprotein (LDL) cholesterol in the sampled serum. […] The amount of LDL/VLDL in the serum was monitored using a HDL and LDL/VLDL Quantitation Kit (Sigma-Aldrich). The amount of anti-PCSK9-mAb in serum, liver, small and large intestines were measured using the ELISA as described above #1. […]
From Day-0 to Day 7, Lactulose (50% water solution, 0.2 ml/mouse) or control water (0.2 ml/mouse) was orally administered once/day. […] At Day 0, prior to any administrations, and Day 7, blood serum was collected and the concentration of LDL was monitored using LDL detection kit (Sigma).

[2] = Lactulose with antibiotics cocktail: xPCSK9 mAb serum half-life and large intestine pH; assay type: in vivo, C57BL6 mice; settings: with antibiotics cocktail in drinking water
Protocol: At Day 0, anti-PCSK9-mAb was systemically administrated (30 mg/kg in PBS, i.v.) to the FcRn gene knockout mice or their wild type C57BL/6 mice (8 w old male). Lactulose (30%, water solution) was orally administered using a Popper's feeding needle once in a day throughout the experiment. In some experiment, groups of mice received antibiotics cocktail (Ampicillin, 2 mg/ml; Vancomycin, 1 mg/ml, Metronidazole 2 mg/ml and Neomycin, 2 mg/ml) ad libitum for 7 days. Blood was collected from mice at Day 1 and Day 7 (100 ul/mouse) by retro-orbital bleeding. The serum was separated from the collected blood and saved at −70 C until the measurement of anti-PCSK9-mAb as well as low-density lipoprotein (LDL) cholesterol in the sampled serum. At Day 7, right after the collection of blood, mice were sacrificed, and liver, small intestine (distal portion, 2 cm above cecum) and large intestine (proximal colon, 1 cm below cecum) were collected. […] The amount of LDL/VLDL in the serum was monitored using a HDL and LDL/VLDL Quantitation Kit (Sigma-Aldrich). The amount of anti-PCSK9-mAb in serum, liver, small and large intestines were measured using the ELISA as described above #1. […] In FIG. 11B, content of large intestine sampled from sacrificed mice was suspended in water (0.1 g/1 ml) and the pH was monitored.

[3] = test system: Substance P and nerve growth factor (NGF); assay: Pregabalin-mediated suppression of pain associated factors with lactulose-generated hydrogen; assay type: in vivo; settings: hydrogen generated by lactulose, mice

SMILES: OC[C@H]1O[C@@H](O[C@@H]2[C@@H](CO)OC(O)(CO)[C@H]2O)[C@H](O)[C@@H](O)[C@H]1O (mixture of isomers) [lactulose]
- oxidized LDL (oxLDL) [1]: can suppress
- LDL level in blood serum versus base line (Day 0) (PCSK9): did not show any changes from the base line level
- effect of lactulose on extending the serum half-life of xPCSK9 mAb [2]: abolished
- effect on pregabalin-mediated suppression of Substance P and NGF [3]: additive effect
